Test system: NCI-H1876 complex spheroid growth, % test/control
Assay: Anticancer human tumor NCI-H1876 cell line growth inhibition [Asc];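 note: compound exposure lasted 7 days starting three days after seeding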;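 for viability, T/C: 100% = DMSO vehicle control wells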
Conditions: for IC50: curve of first compound; for viability, T/C: stronger effect = lower value
Procedure, shortened: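 Stromal components (HUVEC and hMSC) are co-assembled with the cancer cells into multicellular spheroids. Drugs are then added singly or paired, at concentrations falling by half-log increments from a clinically achievable maximum, capped at 10 microM without known Cmax.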

For `CCN1C(C(=O)NC23CCC(C(=O)O)(CC2)CC3)C(c2cccc(Cl)c2F)C2(C(=O)Nc3cc(Cl)ccc32)C12CCCCC2` (centres undefined) + Cc1c(S(C)(=O)=O)c(-c2cc(F)cc(N3CCN(c4ccc(NS(=O)(=O)c5ccc(NC(CCN6CCC(C(=O)OCCCP(=O)(O)O)CC6)CSc6ccccc6)c(S(=O)(=O)C(F)(F)F)c5)cc4)CC3)c2)c(-c2ccc(Cl)cc2)n1C(C)C, the IC50 (second compound 0.0316 µM) was over 3000 nM, the IC50 (second compound 0.1 µM) was over 3000 nM and the IC50 (second compound 0.316 µM) was over 3000 nM. For the same compound, the IC50 (second compound 1 µM) was over 3000 nM, the IC50 (second compound 3.16 µM) was over 3000 nM and the IC50 (second compound 10 µM) was 2740 nM. The viability, T/C (second compound 0.0316 µM, first compound 0.00949 µM) was 97.3%, the viability, T/C (second compound 0.0316 µM, first compound 0.03 µM) was 85.5% and the viability, T/C (second compound 0.0316 µM, first compound 0.0949 µM) was 98.5%. It also gave a viability, T/C (second compound 0.0316 µM, first compound 0.3 µM) of 107%, a viability, T/C (second compound 0.0316 µM, first compound 0.949 µM) of 125% and a viability, T/C (second compound 0.0316 µM, first compound 3 µM) of 106%. It also gave a viability, T/C (second compound 0.1 µM, first compound 0.00949 µM) of 95%, a viability, T/C (second compound 0.1 µM, first compound 0.03 µM) of 105% and a viability, T/C (second compound 0.1 µM, first compound 0.0949 µM) of 99.5%. The viability, T/C (second compound 0.1 µM, first compound 0.3 µM) was 105%, the viability, T/C (second compound 0.1 µM, first compound 0.949 µM) was 124% and the viability, T/C (second compound 0.1 µM, first compound 3 µM) was 98.2%. The viability, T/C (second compound 0.316 µM, first compound 0.00949 µM) was 99%, the viability, T/C (second compound 0.316 µM, first compound 0.03 µM) was 96.4% and the viability, T/C (second compound 0.316 µM, first compound 0.0949 µM) was 107%. The viability, T/C (second compound 0.316 µM, first compound 0.3 µM) was 96.1%, the viability, T/C (second compound 0.316 µM, first compound 0.949 µM) was 116% and the viability, T/C (second compound 0.316 µM, first compound 3 µM) was 81.2%. The viability, T/C (second compound 1 µM, first compound 0.00949 µM) was 95.2%, the viability, T/C (second compound 1 µM, first compound 0.03 µM) was 91.7% and the viability, T/C (second compound 1 µM, first compound 0.0949 µM) was 104%. The viability, T/C (second compound 1 µM, first compound 0.3 µM) was 108%, the viability, T/C (second compound 1 µM, first compound 0.949 µM) was 121% and the viability, T/C (second compound 1 µM, first compound 3 µM) was 60.4%. It also gave a viability, T/C (second compound 3.16 µM, first compound 0.00949 µM) of 104%, a viability, T/C (second compound 3.16 µM, first compound 0.03 µM) of 107% and a viability, T/C (second compound 3.16 µM, first compound 0.0949 µM) of 96.6%. For the same compound, the viability, T/C (second compound 3.16 µM, first compound 0.3 µM) was 107%, the viability, T/C (second compound 3.16 µM, first compound 0.949 µM) was 110% and the viability, T/C (second compound 3.16 µM, first compound 3 µM) was 50.7%. It also gave a viability, T/C (second compound 10 µM, first compound 0.00949 µM) of 103%, a viability, T/C (second compound 10 µM, first compound 0.03 µM) of 99.7% and a viability, T/C (second compound 10 µM, first compound 0.0949 µM) of 94%. For the same compound, the viability, T/C (second compound 10 µM, first compound 0.3 µM) was 107%, the viability, T/C (second compound 10 µM, first compound 0.949 µM) was 115% and the viability, T/C (second compound 10 µM, first compound 3 µM) was 45.3%.
Compound `CCN1CCN(Cc2ccc(Nc3ncc(F)c(-c4cc(F)c5nc(C)n(C(C)C)c5c4)n3)nc2)CC1` + Cc1c(S(C)(=O)=O)c(-c2cc(F)cc(N3CCN(c4ccc(NS(=O)(=O)c5ccc(NC(CCN6CCC(C(=O)OCCCP(=O)(O)O)CC6)CSc6ccccc6)c(S(=O)(=O)C(F)(F)F)c5)cc4)CC3)c2)c(-c2ccc(Cl)cc2)n1C(C)C has an IC50 (second compound 0.0316 µM) of over 1000 nM, an IC50 (second compound 0.1 µM) of over 1000 nM and an IC50 (second compound 0.316 µM) of over 1000 nM. It also gave an IC50 (second compound 1 µM) of over 1000 nM, an IC50 (second compound 3.16 µM) of over 1000 nM and an IC50 (second compound 10 µM) of over 1000 nM. The viability, T/C (second compound 0.0316 µM, first compound 0.00316 µM) was 97.1%, the viability, T/C (second compound 0.0316 µM, first compound 0.01 µM) was 94% and the viability, T/C (second compound 0.0316 µM, first compound 0.0316 µM) was 97.9%. The viability, T/C (second compound 0.0316 µM, first compound 0.1 µM) was 98.7%, the viability, T/C (second compound 0.0316 µM, first compound 0.316 µM) was 117% and the viability, T/C (second compound 0.0316 µM, first compound 1 µM) was 130%. The viability, T/C (second compound 0.1 µM, first compound 0.00316 µM) was 98.7%, the viability, T/C (second compound 0.1 µM, first compound 0.01 µM) was 101% and the viability, T/C (second compound 0.1 µM, first compound 0.0316 µM) was 100%. The viability, T/C (second compound 0.1 µM, first compound 0.1 µM) was 112%, the viability, T/C (second compound 0.1 µM, first compound 0.316 µM) was 121% and the viability, T/C (second compound 0.1 µM, first compound 1 µM) was 127%. For the same compound, the viability, T/C (second compound 0.316 µM, first compound 0.00316 µM) was 106%, the viability, T/C (second compound 0.316 µM, first compound 0.01 µM) was 96.2% and the viability, T/C (second compound 0.316 µM, first compound 0.0316 µM) was 120%. The viability, T/C (second compound 0.316 µM, first compound 0.1 µM) was 106%, the viability, T/C (second compound 0.316 µM, first compound 0.316 µM) was 115% and the viability, T/C (second compound 0.316 µM, first compound 1 µM) was 125%. It also gave a viability, T/C (second compound 1 µM, first compound 0.00316 µM) of 101%, a viability, T/C (second compound 1 µM, first compound 0.01 µM) of 100% and a viability, T/C (second compound 1 µM, first compound 0.0316 µM) of 98.1%. The viability, T/C (second compound 1 µM, first compound 0.1 µM) was 109%, the viability, T/C (second compound 1 µM, first compound 0.316 µM) was 121% and the viability, T/C (second compound 1 µM, first compound 1 µM) was 116%. For the same compound, the viability, T/C (second compound 3.16 µM, first compound 0.00316 µM) was 111%, the viability, T/C (second compound 3.16 µM, first compound 0.01 µM) was 104% and the viability, T/C (second compound 3.16 µM, first compound 0.0316 µM) was 91.8%. For the same compound, the viability, T/C (second compound 3.16 µM, first compound 0.1 µM) was 103%, the viability, T/C (second compound 3.16 µM, first compound 0.316 µM) was 114% and the viability, T/C (second compound 3.16 µM, first compound 1 µM) was 110%. For the same compound, the viability, T/C (second compound 10 µM, first compound 0.00316 µM) was 105%, the viability, T/C (second compound 10 µM, first compound 0.01 µM) was 104% and the viability, T/C (second compound 10 µM, first compound 0.0316 µM) was 94.7%. The viability, T/C (second compound 10 µM, first compound 0.1 µM) was 111%, the viability, T/C (second compound 10 µM, first compound 0.316 µM) was 122% and the viability, T/C (second compound 10 µM, first compound 1 µM) was 102%.

Reference: PubChem BioAssay AID1963441 (Molecular Pharmacology Branch, DTP, NCI, 2024)
